Assay [1] has as its target human PD-L1 (Homo sapiens (Human), UniProt Q9NZQ7). As to the kind of experiment: T cell activation luciferase reporter cell culture system (T Cell Activation Assay). The class given is cell-based. The note with it: luciferase reporter assay; PD-L1 aAPC/CHO-K1 cells with PD-1 effector Jurkat T cells. On the technique in general: In a reporter assay the amount or activity of a reporter protein is the signal.

Assay [2] deals with PD-L1 His protein / PD-1 Fc protein (Homo sapiens (Human), UniProt Q9NZQ7). As to the kind of experiment: HTRF Assay (PD-1/PD-L1 interaction). The class given is binding. The settings on record: PD-L1 His 6 nM, PD-1 Fc 6 nM.

These results are taken from patent publication US20240246964A1 (Arbutus Biopharma Corporation, priority 2021, published 2024).

The term EC50 denotes the concentration that produces a half-maximal response. A high value points to a less potent agent. For orientation: IC50 means the concentration that gives 50% inhibition. A low value points to higher potency.

Chain of PD-L1 His protein / PD-1 Fc protein (Q9NZQ7 19-238): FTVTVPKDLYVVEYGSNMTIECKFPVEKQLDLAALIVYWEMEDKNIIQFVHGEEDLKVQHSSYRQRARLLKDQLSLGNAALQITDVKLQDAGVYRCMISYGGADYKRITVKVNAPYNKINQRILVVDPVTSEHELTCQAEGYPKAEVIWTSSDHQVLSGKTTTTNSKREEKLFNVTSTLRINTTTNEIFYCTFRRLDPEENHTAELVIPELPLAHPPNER
Chain of human PD-L1 (Q9NZQ7 19-290): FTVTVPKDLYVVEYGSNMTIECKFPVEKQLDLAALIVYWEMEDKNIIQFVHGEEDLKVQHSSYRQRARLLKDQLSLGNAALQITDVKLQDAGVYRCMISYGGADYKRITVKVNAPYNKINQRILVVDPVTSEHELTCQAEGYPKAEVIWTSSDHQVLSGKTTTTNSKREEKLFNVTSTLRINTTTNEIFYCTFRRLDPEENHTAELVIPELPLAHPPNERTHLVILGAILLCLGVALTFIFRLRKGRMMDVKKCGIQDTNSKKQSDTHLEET

In the case of `COc1nc(-c2ccnc(-c3cccc4c3CC[C@@H]4Nc3nc(OC)c(CNC[C@@H]4CCC(=O)N4)cc3C(F)(F)F)c2Cl)ccc1CNC[C@@H]1CCC(=O)N1` [Compound 223, (S)-5-((((3′-chloro-6-methoxy-2′-((S)-1-((6-methoxy-5-(((((S)-5-oxopyrrolidin-2-yl)methyl)amino)methyl)-3-(trifluoromethyl)pyridin-2-yl)amino)-2,3-dihydro-1H-inden-4-yl)-[2,4′-bipyridin]-5-yl)methyl)amino)methyl)pyrrolidin-2-one], the EC50 in assay [1] is 16.7 nM. Besides, the IC50 in assay [2] came out at 7.24 nM.
With `COC(=O)C1(NCc2cc(C(F)(F)F)c(N[C@H]3CCc4c(-c5nccc(-c6ccc(CNC[C@@H]7CCC(=O)N7)c(OC)n6)c5Cl)cccc43)nc2OC)CC1` [Compound 149, methyl 1-(((6-(((S)-4-(3′-chloro-6-methoxy-5-(((((S)-5-oxopyrrolidin-2-yl)methyl)amino)methyl)-[2,4′-bipyridin]-2′-yl)-2,3-dihydro-1H-inden-1-yl)amino)-2-methoxy-5-(trifluoromethyl)pyridin-3-yl)methyl)amino)cyclopropane-1-carboxy late], the 50% effective concentration (EC50) in assay [1] was at least 10000 nM. In addition, the IC50 in assay [2] was 12.7 nM.
Take `CNCc1ccc(-c2cccc(-c3ccnc(-c4cc(CNC56CC(C(=O)O)(C5)C6)cc(OC)c4)c3Cl)c2Cl)nc1OC` [Compound 174, 3-((3-(3-chloro-4-(2-chloro-3-(6-methoxy-5-((methylamino)methyl)pyridine-2-yl)phenyl)pyridine-2-yl)-5-methoxybenzyl)amino)bicyclo[1.1.1]pentane-1-carboxylic acid]: the EC50 in assay [1] was at least 10000 nM. The half-maximal inhibitory concentration (IC50) in assay [2] was 23.6 nM.
In assay [1], `COc1cc(-c2nccc(-c3cccc(-c4ccc(CN5CCC(NC(C)=O)CC5)c(OC)n4)c3Cl)c2Cl)ccc1CNC1CCN(C(C)=O)CC1` [Example 341, N-(1-((6-(3-(2-(4-(((1-acetylpiperidin-4-yl)amino)methyl)-3-methoxyphenyl)-3-chloropyridin-4-yl)-2-chlorophenyl)-2-methoxypyridin-3-yl)methyl)piperidin-4-yl)acetamide] showed an EC50 of 22.6 nM. For the same molecule, the IC50 in assay [2] turned out to be 1.14 nM.
The corresponding values for `COc1cc(-c2nccc(-c3cccc(-c4ccc(C5=NCCN5)c(OC)n4)c3Cl)c2Cl)ccc1CNC[C@@H](O)CC(=O)O` [Compound 180, (S)-4-((4-(3-chloro-4-(2-chloro-3-(5-(4,5-dihydro-1H-imidazol-2-yl)-6-methoxypyridin-2-yl)phenyl)pyridine-2-yl)-2-methoxybenzyl)amino)-3-hydroxybutanoic acid] are 35.9 nM and 5.64 nM.
On the same counts, the results for `COc1nc(-c2cccc(-c3ccnc(-c4ccc(CN5CC6(CNC(=O)C6)C5)c(OC(F)F)c4)c3Cl)c2Cl)ccc1CNC1CCOCC1` [Example 683, 2-(4-(3-Chloro-4-(2-chloro-3-(6-methoxy-5-(((tetrahydro-2H-pyran-4-yl)amino)methyl)pyridin-2-yl)phenyl)pyridin-2-yl)-2-(difluoromethoxy)benzyl)-2,6-diazaspiro[3.4]octan-7-one] are 25.9 nM and 0.29 nM.
On the same counts, the results for `COc1cc(-c2nccc(-c3cccc(-c4ccc(CNC5CCN(C(C)=O)CC5)c(OC)n4)c3Cl)c2Cl)cnc1CNC1CCN(C(C)=O)CC1` [Compound 375, 1-(4-(((6-(3-(6′-(((1-Acetylpiperidin-4-yl)amino)methyl)-3-chloro-5′-methoxy-[2,3′-bipyridin]-4-yl)-2-chlorophenyl)-2-methoxypyridin-3-yl)methyl)amino)piperidin-1-yl)ethan-1-one] are 46.4 nM and 1.24 nM.
The molecule `COc1cc(-c2ncnc(-c3cccc(-c4ccc(CN5CC6(C5)CN(C(C)=O)C6)c(OC)n4)c3Cl)c2C)ccc1CN1CC2(C1)CN(C(C)=O)C2` [Example 538, 1-(6-((6-(3-(6-(4-((6-Acetyl-2,6-diazaspiro[3.3]heptan-2-yl)methyl)-3-methoxyphenyl)-5-methylpyrimidin-4-yl)-2-chlorophenyl)-2-methoxypyridin-3-yl)methyl)-2,6-diazaspiro[3.3]heptan-2-yl)ethan-1-one] displayed an EC50 in assay [1] of at least 10000 nM. For the same molecule, the IC50 in assay [2] amounted to 2.59 nM.
On the same counts, the results for `COc1cc(-c2nccc(-c3cccc(-c4ccc(CNC56CC(CO)(C5)C6)c(OC)n4)c3Cl)c2Cl)ccc1CNC12CC(CO)(C1)C2` [Example 591, (3-(((6-(2-chloro-3-(3-chloro-2-(4-(((3-(hydroxymethyl)bicyclo[1.1.1]pentan-1-yl)amino)methyl)-3-methoxyphenyl)pyridin-4-yl)phenyl)-2-methoxypyridin-3-yl)methyl)amino)bicyclo[1.1.1]pentan-1-yl)methanol] are 469 nM and 24.5 nM.
As for “2-(4-(3-Chloro-4-(2-chloro-3-(5-methoxy-6-((7-oxo-2,6-diazaspiro[3.4]octan-2-yl)methyl)pyridin-3-yl)phenyl)pyridin-2-yl)-2-methoxybenzyl)-2,6-diazaspiro[3.4]octan-7-one [Example 566]”, the EC50 in assay [1] came to 341 nM. In assay [2], this molecule came in with an IC50 of 0.93 nM.
On the same counts, the results for `COc1cc(-c2nccc(-c3cccc(-c4ccc(CNC[C@@H]5CCC(=O)N5)c(OC)n4)c3Cl)c2Cl)cc(F)c1CNC1CCN(C(C)=O)CC1` [Compound 148, (S)-5-((((6-(3-(2-(4-(((1-acetylpiperidin-4-yl)amino)methyl)-3-fluoro-5-methoxyphenyl)-3-chloropyridin-4-yl)-2-chlorophenyl)-2-methoxypyridin-3-yl)methyl)amino)methyl)pyrrolidin-2-one] are 19.5 nM and 1.11 nM.
On the same counts, the results for `COc1cc(-c2nccc(-c3cccc(-c4ccc(CNC5CCN(C(C)=O)CC5)c(OC)n4)c3Cl)c2Cl)ccc1CN[C@@H](CCO)C(=O)O` [Example 343, (4-(4-(3-(5-(((1-Acetylpiperidin-4-yl)amino)methyl)-6-methoxypyridin-2-yl)-2-chlorophenyl)-3-chloropyridin-2-yl)-2-methoxybenzyl)-L-homoserine] are 248 nM and 0.09 nM.
The corresponding values for `COc1nc(-c2cccc(-c3ccnc(-c4ccc(CN5CC6(CNC(=O)C6)C5)c(F)c4)c3Cl)c2Cl)ccc1CN1CC2(CNC(=O)C2)C1` [Example 284, 2-((6-(2-Chloro-3-(3-chloro-2-(3-fluoro-4-((7-oxo-2,6-diazaspiro[3.4]octan-2-yl)methyl)phenyl)pyridin-4-yl)phenyl)-2-methoxypyridin-3-yl)methyl)-2,6-diazaspiro[3.4]octan-7-one] are 62.4 nM and 2.81 nM.
In turn, `COc1cc(-c2nccc(-c3cccc(-c4ccc(CNC5CCOCC5)c(OC)n4)c3Cl)c2Cl)ccc1CN(C)C1CCN(C(C)=O)CC1` [Example 442, 1-(4-((4-(3-chloro-4-(2-chloro-3-(6-methoxy-5-(((tetrahydro-2H-pyran-4-yl)amino)methyl)pyridin-2-yl)phenyl)pyridin-2-yl)-2-methoxybenzyl)(methyl)amino)piperidin-1-yl)ethan-1-one] came in with an EC50 in assay [1] of 43.3 nM. The molecule also came in with an IC50 in assay [2] of 5.94 nM.
On the same counts, the results for `COc1cc(-c2nccc(-c3cccc(NC(=O)c4ccc(CNC5CCOCC5)cn4)c3C)c2Cl)ccc1CNC1CCOCC1` [Example 646, N-(3-(3-Chloro-2-(3-methoxy-4-(((tetrahydro-2H-pyran-4-yl)amino)methyl)phenyl)pyridin-4-yl)-2-methylphenyl)-5-(((tetrahydro-2H-pyran-4-yl)amino)methyl)picolinamide] are 2710 nM and 0.48 nM.
The corresponding values for `COc1nc(-c2cccc(-c3nccc(-c4ccc(CNC[C@@H]5CCC(=O)N5)c(OC)n4)c3Cl)c2Cl)ccc1CNC[C@@H]1CCC(=O)N1` [Compound 575, (S)-5-((((3′-Chloro-2′-(2-chloro-3-(6-methoxy-5-(((((S)-5-oxopyrrolidin-2-yl)methyl)amino)methyl)pyridin-2-yl)phenyl)-6-methoxy-[2,4′-bipyridin]-5-yl)methyl)amino)methyl)pyrrolidin-2-one] are 14.1 nM and 0.11 nM.
On the same counts, the results for `COc1nc(-c2cccc(-c3ccnc(-c4cc5c(=O)n(C)c(CNC[C@H](C)O)nn5c4)c3Cl)c2Cl)ccc1CNC[C@@H]1CCC(=O)N1` [Compound 91, 6-(3-chloro-4-(2-chloro-3-(6-methoxy-5-(((((S)-5-oxopyrrolidin-2-yl)methyl)amino)methyl)pyridin-2-yl)phenyl)pyridin-2-yl)-2-((((S)-2-hydroxypropyl)amino)methyl)-3-methylpyrrolo[2,1-f][1,2,4]triazin-4(3H)-one] are 221 nM and 4.4 nM.
As for `COCCNCc1ccc(-c2nccc(-c3cccc(-c4ccc(CNCCOC)c(OC)n4)c3Cl)c2Cl)cc1OC` [Example 446, N-((6-(2-chloro-3-(3-chloro-2-(3-methoxy-4-(((2-methoxyethyl)amino)methyl)phenyl)pyridin-4-yl)phenyl)-2-methoxypyridin-3-yl)methyl)-2-methoxyethan-1-amine], the EC50 in assay [1] came to 31 nM. For the same molecule, in assay [2], the IC50 came to 3.75 nM.
On the same counts, the results for `CNCc1cn(C)c2nc(-c3cccc(-c4ccnc(-c5ccc(CNC[C@@H]6CCC(=O)N6)c(OC)c5)c4Cl)c3Cl)ccc12` [Compound 94, (S)-5-(((4-(3-chloro-4-(2-chloro-3-(1-methyl-3-((methylamino)methyl)-1H-pyrrolo[2,3-b]pyridin-6-yl)phenyl)pyridin-2-yl)-2-methoxybenzyl)amino)methyl)pyrrolidin-2-one] are 47.5 nM and 0.5 nM.
The corresponding values for `COc1cc(-c2nccc(-c3cccc(-c4ccc(CNC5CCN(c6ccccc6)CC5)c(OC)n4)c3Cl)c2Cl)ccc1CNC1CCN(c2ccccc2)CC1` [Example 423, N-((6-(2-Chloro-3-(3-chloro-2-(3-methoxy-4-(((1-phenylpiperidin-4-yl)amino)methyl)phenyl)pyridin-4-yl)phenyl)-2-methoxypyridin-3-yl)methyl)-1-phenylpiperidin-4-amine] are 354 nM and 7.78 nM.
